#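 Growth conditions: 96-well plates. Treatment: test compound, 48 hours, 5 concentrations. Analysis: linear interpolation between bracketing concentrations; unreached endpoints set to highest concentration. At the GI50, growth is halved.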 Active and inactive are the calls of the source. No stated cut-off is given here; in the data, active = GI50 up to about 1.1 µM and inactive = higher.
# Legend:
# Assay in all cases: DTP human tumour cell line panel, 48 h
# A549 = system: A549
# BT-549 = system: BT-549
# HCT-116 = system: HCT-116
# HL-60 = system: HL-60
# Hs-578T = system: Hs-578T
# MDA-MB-435 = system: MDA-MB-435
# MDA-N = system: MDA-N
# NCI-H226 = system: NCI-H226
# OVCAR-5 = system: OVCAR-5
# PC-3 = system: PC-3
# SF-268 = system: SF-268
# SK-MEL-28 = system: SK-MEL-28
# SK-MEL-2 = system: SK-MEL-2
# SK-MEL-5 = system: SK-MEL-5
# SR = system: SR
# T47D = system: T47D
Compound,GI50 (A549),GI50 (BT-549),GI50 (HCT-116),GI50 (HL-60),GI50 (Hs-578T),GI50 (MDA-MB-435),GI50 (MDA-N),GI50 (NCI-H226),GI50 (OVCAR-5),GI50 (PC-3),GI50 (SF-268),GI50 (SK-MEL-28),GI50 (SK-MEL-2),GI50 (SK-MEL-5),GI50 (SR),GI50 (T47D)
C=CCO/N=C/c1cc(/N=C(/S)c2ccoc2C)ccc1Cl,21 µM (inactive),16.2 µM (inactive),10.9 µM (inactive),20.6 µM (inactive),24.4 µM (inactive),19.1 µM (inactive),13.6 µM (inactive),15.9 µM (inactive),16.6 µM (inactive),11.4 µM (inactive),14.8 µM (inactive),37.8 µM (inactive),13.6 µM (inactive),11.4 µM (inactive),6.22 µM (inactive),3.65 µM (inactive)
O=C(n1c(=O)n(-c2ccc(Cl)cc2)c(=O)n1C(=O)C(Cl)(Cl)Cl)C(Cl)(Cl)Cl,> 100 µM (inactive),66.5 µM (inactive),> 100 µM (inactive),> 100 µM (inactive),> 100 µM (inactive),31.6 µM (inactive),> 100 µM (inactive),–,> 10 µM (inactive),> 100 µM (inactive),50 µM (inactive),> 100 µM (inactive),> 100 µM (inactive),> 100 µM (inactive),> 100 µM (inactive),> 100 µM (inactive)
CCCCC(=O)Oc1ccc2c(C)cc(=O)oc2c1,> 100 µM (inactive),> 100 µM (inactive),> 100 µM (inactive),> 100 µM (inactive),> 100 µM (inactive),> 100 µM (inactive),> 100 µM (inactive),> 100 µM (inactive),> 100 µM (inactive),> 100 µM (inactive),> 100 µM (inactive),> 100 µM (inactive),> 100 µM (inactive),> 100 µM (inactive),> 100 µM (inactive),> 100 µM (inactive)
CN(C)CCNC1=Nc2ccccc2C(=O)N2CSCC12 (stereo unspecified),> 100 µM (inactive),> 100 µM (inactive),> 100 µM (inactive),–,> 100 µM (inactive),> 100 µM (inactive),> 100 µM (inactive),> 100 µM (inactive),> 100 µM (inactive),> 100 µM (inactive),> 100 µM (inactive),> 100 µM (inactive),> 100 µM (inactive),> 100 µM (inactive),> 100 µM (inactive),> 100 µM (inactive)
CCN(CC)CCn1c2cc3c(cc2c(=O)c2cccnc21)OCO3,5.11 µM (inactive),> 10 µM (inactive),4.79 µM (inactive),4.58 µM (inactive),> 10 µM (inactive),4.71 µM (inactive),8.93 µM (inactive),5.01 µM (inactive),4.44 µM (inactive),7.43 µM (inactive),6.71 µM (inactive),7.91 µM (inactive),9.91 µM (inactive),2.77 µM (inactive),4.34 µM (inactive),> 10 µM (inactive)
COc1cc([N+](=O)[O-])cc2c1NC(=O)C2(C)SC (stereo unspecified),> 100 µM (inactive),> 100 µM (inactive),36.7 µM (inactive),18.3 µM (inactive),> 100 µM (inactive),53.1 µM (inactive),51.8 µM (inactive),> 100 µM (inactive),> 100 µM (inactive),> 100 µM (inactive),> 100 µM (inactive),> 100 µM (inactive),60.7 µM (inactive),> 100 µM (inactive),68.2 µM (inactive),66.8 µM (inactive)
COc1ccc2cc(CNCCCN3CCN(CCCNCc4ccc5cc(OC)ccc5c4)CC3)ccc2c1,1.83 µM (inactive),1.78 µM (inactive),1.26 µM (inactive),0.24 µM (active),1.52 µM (inactive),1.6 µM (inactive),1.44 µM (inactive),1.91 µM (inactive),1.17 µM (inactive),0.966 µM (active),1.77 µM (inactive),1.71 µM (inactive),1.93 µM (inactive),1.69 µM (inactive),0.333 µM (active),1.32 µM (inactive)
NC(CC(O)(c1ccccc1)c1ccccc1)c1ccccc1S (stereo unspecified),14.7 µM (inactive),14.7 µM (inactive),13.2 µM (inactive),15 µM (inactive),20.3 µM (inactive),14.8 µM (inactive),15.6 µM (inactive),15 µM (inactive),15.9 µM (inactive),11.4 µM (inactive),9.71 µM (inactive),17.5 µM (inactive),15.9 µM (inactive),13 µM (inactive),23.6 µM (inactive),16.8 µM (inactive)
